According to patent US20050147691A1, “Catalytic oxidation of peroxy salts” (priority 2002, published 2005):

Conditions: DPS 1 mM, ambient temperature
Protocol: The oxidation performance of the oxidizer or oxidizer based formulations was determined by fading of the crystal violet dye solution color. The fading of the color was monitored by measuring the UV absorbance of the dye solution at 589 nm, before and after addition of oxidizer or oxidizer based formulation. The change in absorbance or fading of color of the dye solution, corresponds to the oxidation activity of the oxidizer. The greater the change in absorbance, more reactive is the oxidizer composition.
The oxidation activity was determined by measuring the destruction of crystal violet dye color at a wavelength of 589 nm by these formulations.
Crystal Violet Dye solution: Prepare crystal violet dye solution by dissolving 5 mg of crystal violet dye in 1000 mls of deionized water. Dilute the solution accordingly to get a sharp peak at 589 nm.
Procedure: • 1. […] Into 1500 mls beaker add 1000 mls of crystal violet dye solution. • 3. Using Hach spectrophotometer measure initial absorbance of the dye solution at 589 nm. • 4. […] Measure the absorbance at 589 nm after 1 and 2 hours reaction time. • 6. Calculate the percent decrease in crystal violet dye absorbance at 589 nm using the formula: [formula] Where Absi=Absorbance of crystal violet dye solution at the start of the experiment […]

Row | SMILES | effect on the oxidation performance of sodium dipersulfate, in words
1 | O.O.O.O.O.O=S(=O)([O-])[O-].[Cu+2] [copper sulfate, copper sulfate pentahydrate] | increased
2 | O.O.O.O.O.O.O.O=S(=O)([O-])[O-].[Zn+2] [zinc sulfate, zinc sulfate heptahydrate] | no effect
